Test results taken from patent publication US20110028453A1, “Treating Negative Symptoms of Schizophrenia Associated with Defective Neuregulin 1” (priority 2009, published 2011).

Key:
NRG1 = experiment: Western blot of NRG1 level in treated A172 cells; type: cell-based, human
Protocol: (§1) A172 cells were cultured in DMEM supplemented with 10% heat-inactivated fetal bovine serum (FBS; Hyclone, Logan, Utah), 100 U/mL penicillin and 0.1 mg/mL streptomycin (Invitrogen, Carlsbad, Calif.) at 37° C. in a humidified incubator with 5% CO2 and 95% air.
(§2) The cells were lysed and the lysates were suspended in a RIPA buffer (50 mM HEPES (pH 7.4), 4 mM EDTA, 150 mM NaCl, 10 mM Na4P2O7, 100 mM NaF, 2 mM Na3VO4, 1% Triton X-100, 0.25% sodium deoxycholate, 50 mM 4-(2-aminoethyl) benzene sulfonylfluoride, 50 μg/mL leupeptin, and 20 μg/mL aprotinin). For each cell sample, 30˜50 μg of total protein, along with a molecular weight ladder were resolved on 8% a bis-tris polyacrylamide NuPAGE gels (90˜130 V, 2 hrs) via electrophoresis and then transferred onto a nitrocellulose membrane (Invitrogen) (550 mA, 90 min) The membrane was first blocked using phosphate buffered saline (PBS) with 5% dry skimmed milk powder for 1 hr at room temperature and then incubated at 4° C. in the presence of mouse anti-serotonin transporter antibody (MAB1564; Chemicon), rabbit anti-norepinephrine transporter antibody (AB2234; Millipore, Bedford, Mass.), or anti-β-actin antibody (MAB1501, Chemicon) overnight. The antibody was diluted in phosphate buffered saline containing 0.1% Tween-20 (PBST). Afterwards, the membrane was washed with PBST and then incubated with a peroxidase-conjugated secondary antibody in PBST. After being washed for several times, the membrane was subjected to the enhanced chemiluminescence (ECL) analysis, following the method described in Yeh et al., 2009, Glia, 57:454-464, using an ECL kit purchased from Santa Cruz Biotechnology and Kodak X-OMAT LS film (Eastman Kodak, Rochester, N.Y.).
(§3) A172 cells were cultured in the presence of serotonin at a concentration of 1, 3, 10, 30, or 100 μM. The levels of both NGR1 and ErbB4, the major receptor of NRG1 in the brain, in the treated A172 cells were examined by Western blot as described above at various time points (e.g., 2 hr, 4 hr, 8 hr, 12 hr, and 24 hr post treatment), using rabbit anti-NRG1 precursor antibody no. […]

ErbB4 = experiment: Western blot of ErbB4 level in treated A172 cells; type: cell-based, human
Protocol: as §1, §2, §3

[1] = tested on: wild-type and NRG1+/- mice; experiment: Forced swimming test; type: in vivo, mouse; conditions: for immobility period: desipramine 20 mg/kg i.p.; for effect on immobility time: i.p., desipramine 20, imipramine 15, venlafaxine 15 mg/kg
From the text: (§4) Transmembrane (TM)-domain NRG1 heterozygous mutant mice (129S5-Nrg1tm1Lex, ID#011745-UCD) were obtained from Mutant Mouse Regional Resource Centers (MMRRC) and backcrossed with B6 mice. NRG1^+/− mice and their wild-type littermates were generated by in-house mating of male NRG1^+/− mice and female C57BL/6 mice. Heterozygous crossing has been practiced for at least 7 generations to obtain animals with a homogeneous C57BL/6 genetic background except for the TM-mutated nrg1 gene locus. Mouse genotypes were determined by PCR analysis. Animals were housed (five per cage) under a 12-hr light/dark cycle (lights on from 8:00 a.m. to 8:00 p.m.) at constant room temperature and relative humidity with food and water available ad libitum. All experiments were started at 10-week-old period at weight of 25-30 g.
(§5) Before undergoing any behavioral test, animals were handled by an investigator for at least 3 days so that they became familiar with the investigator. The animals had been placed under laboratory conditions for at least 1 hr before each behavioral test.
To perform the forced swimming test, each mouse, administered via intraperitoneal injection with either one of the above-listed serotonin transporter inhibitors or saline 30-60 minutes ago, was placed individually in a clear glass cylinder (height, 25 cm; diameter, 15 cm) containing water (depth: 15 cm; temperature: 26±1° C.). Its behavior was recorded by a video camera during a 6-min testing period. The duration of immobility was measured during the last 4 min after a 2-min habituation period.

[2] = tested on: wild-type and NRG1+/- mice; experiment: Social withdrawal behavior evaluation; type: in vivo, mouse; parameters: key to social approach change score: score: +1/s social side, 0 center, -1 nonsocial; presence minus absence; conditions: i.p. 30 min before testing; for social approach change score: NRG1+/- mice; for social approach change score, effect: wild-type mice, same doses
From the text: as §4, §5
The social withdrawal behavior evaluation study was performed following the method described in Sankoorikal et al., Biol. Psychiatry 59:415-423, 2006 with modifications. Briefly, this study was carried out in a behavioral testing apparatus containing two end chambers and one middle chamber. A clear Plexiglas cylinder was placed in each of the two end chambers, one being designated as “social side” (where stimulus to mice was introduced through the cylinder) and the other being designated as the “nonsocial side.” (where the cylinder is empty). Multiple holes (0.5 in diameter each) are evenly spaced over the surface of the two cylinders.
Each of the mice to be tested was housed individually for 3 days before the social withdrawal behavior evaluation study was performed. During the study, the response (i.e., social approach) of a test mouse to a novel (unfamiliar) “stimulus” was observed within 5 minutes after the mouse was exposed to the stimulus. A “social approach score” was calculated for each mouse according to the time it spent in each of the three chambers as follows: +1 for each second spent in the social side chamber, 0 for each second spent in the center chamber, and −1 for each second spent in the nonsocial side chamber. The “social approach change score” was calculated by subtracting the value of “social approach score in the absence of stimulus mouse” condition from the value for “presence of stimulus mouse” condition.

[3] = NRG1+/- mice, much greater than in wild-type
[4] = male (FIG. 2 panel A), desipramine 20, imipramine 15, fluvoxamine 15, venlafaxine 15, duloxetine 20, escitalopram 30 mg/kg, saline −37.7±28.8
[5] = female, duloxetine 20, escitalopram 30 mg/kg, saline −60.4±40.2

| SMILES | effect on immobility time [1, 3] | effect on immobility time ([1]; wild-type mice) | social approach change score [2, 4] | social approach change score, effect [2] | also measured |
| --- | --- | --- | --- | --- | --- |
| CCCN(CCC)C1CCc2cccc(O)c2C1 (centres unmarked) [8-OH DPAT, 8-hydroxy-N,N-dipropyl-2-aminotetralin] | – | – | – | – | level of NRG1 compared with untreated A172 cells (maximal effect) (NRG1; 0.3 μM, 4 hours): 1.44±0.12 fold; level of ErbB4 compared with untreated A172 cells (maximal effect) (ErbB4; 0.3 μM, 4 hours): 1.44±0.10 fold |
| COc1cc(CC(C)N)c(OC)cc1I (centres unmarked) [DOI] | – | – | – | – | effect on level of NRG1 (NRG1; 0.1-3 μM, 4 hours): did not show increased levels; effect on level of ErbB4 (ErbB4; 0.1-3 μM, 4 hours): did not show increased levels |
| CNCCCN1c2ccccc2CCc2ccccc21 [desipramine] | decreased | only slightly affected | 122.7±31.0 | not significantly different | immobility ([1]; C57BL/6 wild-type mice, desipramine 50 mg/kg, saline 101.4±16.4 sec): 58.6 ± 11.0 s; immobility period ([1]; NRG1+/- mice, control NRG1+/- = 122.8%, p<0.01): 36.5±18.0%; immobility period ([1]; wild-type mice, control wild-type = 100.0%, p=0.24): 65.7±24.5% |
| CNCC[C@H](Oc1cccc2ccccc12)c1cccs1 [duloxetine] | – | – | 78.7±28.5 | not significantly different | social approach change score [2, 5]: 103.7±30.8 |
| CN(C)CCC[C@@]1(c2ccc(F)cc2)OCc2cc(C#N)ccc21 [escitalopram] | – | – | 175.3±60.4 | not significantly different | social approach change score [2, 5]: 110.1±41.9 |
| COCCCC/C(=N\OCCN)c1ccc(C(F)(F)F)cc1 [fluvoxamine] | – | – | 98.6±15.9 | not significantly different | – |
| CN(C)CCCN1c2ccccc2CCc2ccccc21 [imipramine] | decreased | only slightly affected | 138.7±18.8 | not significantly different | – |
| NCCc1c[nH]c2ccc(O)cc12 [serotonin] | – | – | – | – | level of NRG1 compared to saline control (NRG1; serotonin 10 μM, p<0.05): 1.4±0.06 fold; level of ErbB4 compared to saline control (ErbB4; serotonin 10 μM, p<0.05): 1.7±0.1 fold |
| COc1ccc(C(CN(C)C)C2(O)CCCCC2)cc1 (centres unmarked) [venlafaxine] | decreased | only slightly affected | 61.9±24.7 | not significantly different | – |
